In patent publication US10179125B2, “Substituted pyridines as bromodomain inhibitors” (Zenith Epigenetics Ltd., priority 2014, dated 2019):

Legend:
hIL-6 = test: Inhibition of hIL-6 mRNA transcription in LPS-stimulated U937 cells; format: cell-based, Human; conditions: Homo sapiens, U-937, PMA-differentiated U937 cells, 1 h pretreatment, LPS 3 h, read-out: IL-6 activity
Method in brief: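 U937 cells differentiated 3 days with 60 ng/mL PMA, pretreated 1 h with compound (0.1% DMSO), then stimulated with 1 ug/mL E. coli LPS for 3 h at 37 °C. IL-6 mRNA measured by one-step TaqMan qRT-PCR, normalized to cyclophilin; fold expression relative to control, triplicate wells.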

Human AML MV-4-11 cells = test: Inhibition of cell proliferation in MV4-11 cells (CellTiter Aqueous One); format: cell-based; conditions: Homo sapiens, 72 h
Method in brief: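 MV4-11 cells (5×10^4/well) in IMDM + 10% FBS were treated with graded compound or 0.1% DMSO for 72 h at 37 °C, 5% CO2, in triplicate. CellTiter Aqueous One was added for 3–4 h and absorbance read at 490 nm. Background-corrected signal was expressed relative to DMSO and used to calculate IC50.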

hApoA-I = test: Up-regulation of hApoA-1 mRNA transcription in Huh7 cells; format: cell-based; conditions: EC170, Huh7 cells, 48 h
Method: In this example, hApoA-I mRNA in tissue culture cells was quantitated to measure the transcriptional up-regulation of hApoA-I when treated with a compound of the present disclosure.
Huh7 cells (2.5×10^5 per well) were plated in a 96-well plate using 100 μL DMEM per well, (Gibco DMEM supplemented with penicillin/streptomycin and 10% FBS), 72 h before the addition of the compound. The cells are treated with increasing concentrations of the compound or […] (0.1%), and incubated at 37° C., 5% CO2 for 48 h. Spent media was removed from the Huh-7 cells and placed on ice for immediate use with the “LDH cytotoxicity assay Kit II” from Abcam. The cells remaining in the plate were rinsed with 100 μL PBS. Cells were harvested using the mRNA Catcher PLUS kit according to manufacturer's instructions. The eluted mRNA was then used in a one-step quantitative real-time PCR reaction, using components of the RNA UltraSense™ One-Step Kit (Life Technologies) together with Applied Biosystems TaqMan® primer-probes for hApoA-I and Cyclophilin. Real-time PCR plates were run on a ViiA™7 real time PCR machine (Applied Biosystems), data was analyzed, normalizing the Ct values for hApoA-1 to an internal control, prior to determining the fold induction of each unknown sample, relative to the control.

cMYC = test: Inhibition of cMYC expression in MV4-11 cells (real-time PCR); format: cell-based, Human; conditions: Homo sapiens, 3 h, cMYC mRNA, read-out: c-myc activity
Method in brief: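 MV4-11 cells (2.5×10^4/well) treated 3 h at 37° C with compound in IMDM/10% FBS, 0.1% DMSO vehicle, in triplicate. cMYC mRNA quantified by one-step TaqMan RT-qPCR, Ct normalised to cyclophilin; fold expression relative to DMSO control.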

[1] = biological target: T1, Brd4 bromodomain 1 (BRD4(1)) (Homo sapiens, UniProt O60885); test: Inhibition of tetra-acetylated histone H4 binding to BET bromodomain (HTRF/FRET); conditions: His-tagged bromodomain 200 nM, biotinylated tetra-acetylated histone H4 peptide, 2 h room temperature
T1 construct: made in house; host or cells: E. coli BL21(DE3)
Method in brief: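 His-tagged BRD4(1) (200 nM, E. coli-expressed) incubated with biotinylated tetra-acetylated histone H4 peptide (25-50 nM) plus Eu-cryptate streptavidin and XL665 anti-His, with compound (0.2% DMSO), 2 h at room temperature in HEPES pH 7.4 buffer. HTRF 665/620 nm ratio decrease gives IC50.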

hIL-17 = test: Inhibition of hIL-17 mRNA transcription in OKT3-stimulated peripheral blood mononuclear cells; format: cell-based; conditions: human PBMC, OKT3 antibody 6 h, read-out: IL-17 activity
Method: Human peripheral blood mononuclear cells were plated (2.0×10^5 cells per well) in a 96-well plate in 45 μL OpTimizer T Cell expansion media (Life Technologies) containing 20 ng/ml IL-2 and penicillin/streptomycin. The cells were treated with increasing concentrations of the test compound or DMSO (0.1%), and incubated at 37° C., 5% CO2 for 1 h before addition of 10× stock OKT3 antibody at 10 ug/ml in media. Triplicate wells were used for each concentration, Cells were incubated at 37° C., 5% CO2 for 6 h before the cells were harvested. At time of harvest, cells were pelleted by centrifugation at 800 rpm for 5 min. Cells were harvested using the mRNA Catcher PLUS kit according to manufacturer's instructions. The eluted mRNA was then used in a one-step quantitative real-time PCR reaction, using components of the RNA UltraSense™ One-Step Kit (Life Technologies) together with Applied Biosystems TaqMan® primer-probes for hIL-17 and Cyclophilin. Real-time PCR plates were run on a ViiA™ 7 real time PCR machine (Applied Biosystems), data was analyzed, normalizing the Ct values for hIL-17 to an internal control, prior to determining the fold induction of each unknown sample, relative to the control.

Structure (SMILES)	IC50 (hIL-6) [nM]	IC50 (Human AML MV-4-11 cells) [nM]	ApoA-1 activity (hApoA-I)	IC50 (cMYC) [nM]	IC50 [1] [nM]	IC50 (hIL-17) [nM]
COc1ncc(-c2c(C)noc2C)cc1Nc1cccnc1 [Example 1, 5-(3,5-dimethylisoxazol-4-yl)-2-methoxy-N-(pyridin-3-yl)pyridin-3-amine]	3000 to 30000	3000 to 30000	++ (EC170 value between 0.3 and 3 μM were deemed to be very active (++))	3000 to 30000	300 to 3000	
COc1ncc(-c2c(C)noc2C)cc1NCc1ccccc1 [Example 2, N-benzyl-5-(3,5-dimethylisoxazol-4-yl)-2-methoxypyridin-3-amine]	300 to 3000	300 to 3000	++ (EC170 value between 0.3 and 3 μM were deemed to be very active (++))	300 to 3000	≤ 300	300 to 3000
COc1ncc(-c2c(C)noc2C)cc1NCc1ccc(F)cc1 [Example 6, 5-(3,5-dimethylisoxazol-4-yl)-N-(4-fluorobenzyl)-2-methoxypyridin-3-amine]	300 to 3000	3000 to 30000		300 to 3000	≤ 300	300 to 3000
COc1ncc(-c2c(C)noc2C)cc1NCc1ccsc1 [Example 9, 5-(3,5-dimethylisoxazol-4-yl)-2-methoxy-N-(thiophen-3-ylmethyl)pyridin-3-amine]	≤ 300	300 to 3000	++ (EC170 value between 0.3 and 3 μM were deemed to be very active (++))	300 to 3000	≤ 300	300 to 3000
COc1ncc(-c2c(C)noc2C)cc1OCc1ccccc1 [Example 10, 4-(5-(benzyloxy)-6-methoxypyridin-3-yl)-3,5-dimethylisoxazole]	300 to 3000	3000 to 30000		300 to 3000	≤ 300	3000 to 30000
COc1ncc(-c2c(C)noc2C)cc1NCc1ccc(C#N)cc1 [Example 11, 4-(((5-(3,5-dimethylisoxazol-4-yl)-2-methoxypyridin-3-yl)amino)methyl)benzonitrile]	300 to 3000	3000 to 30000		300 to 3000	≤ 300	300 to 3000
COc1ncc(-c2c(C)noc2C)cc1NCc1ccc(Cl)cc1 [Example 14, N-(4-chlorobenzyl)-5-(3,5-dimethylisoxazol-4-yl)-2-methoxypyridin-3-amine]	3000 to 30000	3000 to 30000			≤ 300	300 to 3000
COc1ncc(-c2c(C)noc2C)cc1Nc1c(C)noc1C [Example 43, N-(5-(3,5-dimethylisoxazol-4-yl)-2-methoxypyridin-3-yl)-3,5-dimethylisoxazol-4-amine]	≤ 300	300 to 3000		≤ 300	≤ 300	300 to 3000
CNc1ncc(-c2c(C)noc2C)cc1NCc1ccccc1 [Example 45, N3-benzyl-5-(3,5-dimethylisoxazol-4-yl)-N2-methylpyridine-2,3-diamine]	≤ 300	300 to 3000		300 to 3000	≤ 300	300 to 3000
COc1ncc(-c2c(C)noc2C)cc1Oc1cc(C(N)=O)ccc1C [Example 67, 3-((5-(3,5-dimethylisoxazol-4-yl)-2-methoxypyridin-3-yl)oxy)-4-methylbenzamide]	300 to 3000	3000 to 30000		300 to 3000	≤ 300	
CNc1ncc(-c2c(C)noc2C)cc1NCc1ccsc1 [Example 68, 5-(3,5-dimethylisoxazol-4-yl)-N2-methyl-N3-(thiophen-3-ylmethyl)pyridine-2,3-diamine]	300 to 3000	300 to 3000		300 to 3000	≤ 300	
